Experimental data as given in US20180354909A1, “SUBSTITUTED BENZIMIDAZOLIUM, PYRIDO-IMIDAZOLIUM, OR PYRAZINO-IMIDAZOLIUM COMPOUNDS AS CHEMOTHERAPEUTICS” (The Board of Regents of the University of Texas System, priority 2015, published 2018).

Tested on: Mut6
Assay: Cytotox testing (CellTiter-Glo ATP assay) in Mut6 cells
Type: cell-based, mouse
Settings: Mus musculus, 96 h, Mut6 cells, 4 days, CellTiter-Glo; read-out: Activity in Mut6 [EC50]
Protocol: Mut6 tumor cells were cultured in DMEM/F12 media supplemented by EGF (10 ng/mL), basic FGF (10 ng/mL), heparin (4 ug/mL), glucose (total 21 mM), NaHCO3 (113 μg/mL), Hepes (119 μg/mL), glutamine (2 mM), sodium pyruvate (1 mM), N2 supplement (ThermoFisher Gibco 17502-048, 100×, at 100-fold dilution), B27 supplement (ThermoFisher Gibco 12587-010, 50×, at 100-fold dilution), and penicillin/streptomycin (ThermoFisher, final 1%). Cells were maintained in Ultra-low attachment plate (Corning) as sphere-forming cells. For ATP assays and protein/RNA isolation, cells were plated into 96-well plates or 6-well plated that were coated with poly-lysine (Sigma P6407, 10 μg/mL in PBS, 4 hr at 37° C.) and laminin (ThermoFisher 23017015, ˜5 mg/L in PBS, overnight at 37° C.). MEFs and Astrocytes were cultured in DMEM supplemented with 10% FBS and 1% Penicillin/Streptomycin.
2,000 cells were plated into each well of 96-well plates. About 3 hours later, cells were treated by 12M11, at 800-fold dilution (4 mM stock was diluted into 5 μM final concentration). […] CellTiter-Glo assay (Promega) was performed according to manufacturer's instructions, by adding 20 μL of reagent into each well. Luminescence signal was detected by the PolarStar plate reader (BMG Labtech). Experiments were performed in quadruplicate, and results are presented with mean average −/+ standard deviation. EC505 were calculated by GraphPad Prism6 software.
The compounds described herein were tested using a cell-based cytotoxicity assay against neuronal stem cells in Mut6, which is a mouse glioblastoma model cell line.

| SMILES | EC50 |
| --- | --- |
| CCN(CC)c1ccc(-c2n([C@H](C)C(=O)OC3C[C@H](C)CC[C@H]3C(C)C)c3ccccc3[n+]2C)cc1 (some centres unmarked) | < 0.1 µM |
| CC(C)[C@@H]1CC[C@@H](C)CC1OC(=O)[C@@H](C)n1c(-c2ccc(N(C)C)c(C(F)(F)F)c2)[n+](C)c2ccccc21 (some centres unmarked) | < 0.1 µM |
| CCc1n(CC(=O)O[C@H]2CC[C@H](C)CC2)c2ccccc2[n+]1C | > 5 µM |
| CCc1n([C@H](C)C(=O)OC2C[C@H](C)CC[C@H]2C(C)C)c2ccccc2[n+]1C (some centres unmarked) | < 0.1 µM |
| COC(=O)Cn1c(-c2ccc(SC)cc2)nc2ccccc21 | > 5 µM |
| CC(C)[C@@H]1CC[C@@H](C)CC1OC(=O)Cn1c(-c2ccc(Br)cc2)[n+](C)c2ccccc21 (some centres unmarked) | 0.1 to 1 µM |
| CCc1n([C@@H](C(=O)OC2C[C@H](C)CC[C@H]2C(C)C)C(C)(C)C)c2ccccc2[n+]1C (some centres unmarked) | 0.1 to 1 µM |
| CC(C)[C@@H]1CC[C@@H](C)CC1OC(=O)[C@@H](C1CC1)n1c(-c2ccc(N(C)C)cc2)[n+](C)c2ccccc21 (some centres unmarked) | < 0.1 µM |
| CC(C)[C@@H]1CC[C@@H](C)CC1OC(=O)Cn1c(-c2ccc(N(C)C)cc2)[n+](CC2CC2)c2ccccc21 (some centres unmarked) | < 0.1 µM |
| CC(C)[C@@H]1CC[C@@H](C)CC1OC(=O)Cn1c(-c2ccc(N3CCCCC3)cc2)[n+](C)c2ccccc21 (some centres unmarked) | < 0.1 µM |
| COC(=O)Cn1c(-c2cccc(C#N)c2)nc2ccccc21 | > 5 µM |
| COC(=O)Cn1c(/C=C/c2ccccc2)nc2ccccc21 | > 5 µM |
| CCc1n(CC(=O)OC2C[C@H](C)CC[C@H]2C(C)C)c2ccc([N+](=O)[O-])cc2[n+]1C (some centres unmarked) | 1 to 5 µM |
| CC(C)[C@@H]1CC[C@@H](C)CC1OC(=O)Cn1c(-c2cccc(Br)c2)nc2ccccc21 (some centres unmarked) | > 5 µM |
| C=CC[n+]1c(-c2ccc(N(C)C)cc2)n(CC(=O)OC2C[C@H](C)CC[C@H]2C(C)C)c2ccccc21 (some centres unmarked) | < 0.1 µM |
| CCc1n(CC(=O)OC2C[C@H](C)CC[C@H]2C(C)C)c2ccc(Cl)cc2[n+]1C (some centres unmarked) | 0.1 to 1 µM |
| CCc1n(CC(=O)OC2C[C@H](C)CC[C@H]2C(C)C)c2cc(C(F)(F)F)ccc2[n+]1C (some centres unmarked) | 1 to 5 µM |
| CCCCN(CCCC)c1ccc(-c2n([C@H](C)C(=O)OC3C[C@H](C)CC[C@H]3C(C)C)c3ccccc3[n+]2C)cc1 (some centres unmarked) | < 0.1 µM |
| COC(=O)Cn1c(C)nc2ccccc21 | > 5 µM |
| COc1ccc(-c2n([C@@H](C(=O)OC3C[C@H](C)CC[C@H]3C(C)C)C3CC3)c3ccccc3[n+]2C)cc1 (some centres unmarked) | < 0.1 µM |
| CCc1n(CC(=O)OC2C[C@H](C)CC[C@H]2C(C)C)c2cccnc2[n+]1C (some centres unmarked) | 0.1 to 1 µM |
| CC(C)[C@@H]1CC[C@@H](C)CC1OC(=O)Cn1c(-c2ccc(N3CCCC3)cc2)[n+](C)c2ccccc21 (some centres unmarked) | < 0.1 µM |
| CC(C)[C@@H]1CC[C@@H](C)CC1OC(=O)Cn1c(-c2ccc(Cl)c(Cl)c2)[n+](C)c2ccccc21 (some centres unmarked) | 0.1 to 1 µM |
| C#CCCOC(=O)Cn1c(CC)[n+](C)c2ccccc21 | > 5 µM |
| CCc1n([C@H](Cc2ccc(C)cc2)C(=O)OC2C[C@H](C)CC[C@H]2C(C)C)c2ccccc2[n+]1C (some centres unmarked) | < 0.1 µM |
| CCc1n(CC(=O)OC2C[C@H](C)CC[C@H]2C(C)C)c2cc(OC)ccc2[n+]1C (some centres unmarked) | < 0.1 µM |

| SMILES | EC50 |
| --- | --- |
| CCc1n(CC(=O)O[C@H]2CC[C@@H](C)CC2)c2ccccc2[n+]1C | > 5 µM |
| COC(=O)Cn1c(-c2ccccc2)nc2ccccc21 | > 5 µM |
| CCc1n(CC(=O)OC23CC4CC(CC(C4)C2)C3)c2ccccc2[n+]1C | 1 to 5 µM |
| CCc1n(CC(=O)OC)c2ccccc2[n+]1C | > 5 µM |
| CCc1n(CC(=O)OC2C[C@H](C)CC[C@H]2C(C)C)c2ccc(Br)cc2[n+]1C (some centres unmarked) | 0.1 to 1 µM |
| CC(C)[C@@H]1CC[C@@H](C)CC1OC(=O)[C@@H](C)n1c(-c2ccc(N(C3CC3)C3CC3)cc2)[n+](C)c2ccccc21 (some centres unmarked) | < 0.1 µM |
| CCc1n(CC(=O)Oc2ccccc2)c2ccccc2[n+]1C | > 5 µM |
| CC(C)[C@@H]1CC[C@@H](C)CC1OC(=O)Cn1c(-c2ccc(C(C)(C)C)cc2)[n+](C)c2ccccc21 (some centres unmarked) | < 0.1 µM |
| CCc1n([C@H](C)C(=O)OC2C[C@@H](C)CC[C@@H]2C(C)C)c2ccccc2[n+]1C (some centres unmarked) | < 0.1 µM |
| CCc1n(CC(=O)O[C@H]2C[C@@H](C)CC[C@@H]2C(C)C)c2ccccc2[n+]1C | 0.1 to 1 µM |
| CC(C)[C@@H]1CC[C@@H](C)CC1OC(=O)Cn1c(-c2cccc(C#N)c2)[n+](C)c2ccccc21 (some centres unmarked) | > 5 µM |
| CCc1n(CC(=O)OC2C[C@H](C)CC[C@H]2C(C)C)c2ccccc2[n+]1C (some centres unmarked) | < 0.1 µM |
| CCc1n([C@H](Cc2ccccc2)C(=O)OC2C[C@H](C)CC[C@H]2C(C)C)c2ccccc2[n+]1C (some centres unmarked) | 0.1 to 1 µM |
| CC(C)[C@@H]1CC[C@@H](C)CC1OC(=O)Cn1c(-c2ccc(N(C)C)cc2)[n+](Cc2ccccc2)c2ccccc21 (some centres unmarked) | < 0.1 µM |
| COC(=O)Cn1c(-c2ccc(C)cc2)nc2ccccc21 | > 5 µM |
| COc1ccc(-c2n([C@H](C)C(=O)OC3C[C@H](C)CC[C@H]3C(C)C)c3ccccc3[n+]2C)cc1 (some centres unmarked) | < 0.1 µM |
| CC(C)[C@@H]1CC[C@@H](C)CC1OC(=O)Cn1c(-c2ccc(O)cc2)nc2ccccc21 (some centres unmarked) | > 5 µM |
| CCc1n(CC(=O)OC2C[C@H](C)CC[C@H]2C(C)C)c2cc([N+](=O)[O-])ccc2[n+]1C (some centres unmarked) | 1 to 5 µM |
| CC(C)[C@@H]1CC[C@@H](C)CC1OC(=O)Cn1c(-c2ccccc2)nc2ccccc21 (some centres unmarked) | > 5 µM |
| CC(C)[C@@H]1CC[C@@H](C)CC1OC(=O)Cn1c(-c2cccc(Cl)c2)[n+](C)c2ccccc21 (some centres unmarked) | 0.1 to 1 µM |
| Cc1cc(-c2n([C@H](C)C(=O)OC3C[C@H](C)CC[C@H]3C(C)C)c3ccccc3[n+]2C)ccc1N(C)C (some centres unmarked) | < 0.1 µM |
| CCc1n(CC(=O)OC2C[C@H](C)CC[C@H]2C(C)C)c2ccc(C#N)cc2[n+]1C (some centres unmarked) | 1 to 5 µM |
| CCc1n([C@@H](C(=O)OC2C[C@H](C)CC[C@H]2C(C)C)C2CCCC2)c2ccccc2[n+]1C (some centres unmarked) | < 0.1 µM |
| CCc1n([C@@H](C(=O)OC2C[C@H](C)CC[C@H]2C(C)C)C2CC2)c2ccccc2[n+]1C (some centres unmarked) | < 0.1 µM |
| CCc1n(CC(=O)OC2C[C@H](C)CC[C@H]2C(C)C)c2cc(C)ccc2[n+]1C (some centres unmarked) | < 0.1 µM |
| CCc1n(CC(=O)OC2C[C@H](C)CC[C@H]2C(C)C)c2cc(Cl)ccc2[n+]1C (some centres unmarked) | 0.1 to 1 µM |

| SMILES | EC50 |
| --- | --- |
| CC(C)[C@@H]1CC[C@@H](C)CC1OC(=O)Cn1c(-c2ccc(OC(=O)CCCCC3SC[C@H]4NC(=O)N[C@@H]34)cc2)[n+](C)c2ccccc21 (some centres unmarked) | 1 to 5 µM |
| CC(C)[C@@H]1CC[C@@H](C)CC1OC(=O)Cn1c(-c2ccc(C(F)(F)F)cc2)[n+](C)c2ccccc21 (some centres unmarked) | 0.1 to 1 µM |
| CC(C)[C@@H]1CC[C@@H](C)CC1OC(=O)[C@@H](C1CC1)n1c(-c2ccc(N(C3CC3)C3CC3)cc2)[n+](C)c2ccccc21 (some centres unmarked) | < 0.1 µM |
| CC(C)[C@@H]1CC[C@@H](C)CC1OC(=O)[C@@H](C1CC1)n1c(-c2ccc(C(F)(F)F)cc2)[n+](C)c2ccccc21 (some centres unmarked) | 0.1 to 1 µM |
| CC(C)[C@@H]1CC[C@@H](C)CC1OC(=O)Cn1c(-c2ccc(OC(C)(C)C)cc2)[n+](C)c2ccccc21 (some centres unmarked) | < 0.1 µM |
| CCc1n([C@@H](C)C(=O)OC2C[C@H](C)CC[C@H]2C(C)C)c2ccccc2[n+]1C (some centres unmarked) | < 0.1 µM |
| CCc1n(CC(=O)OC2C[C@H](C)CC[C@H]2C(C)C)c2cc(C#N)ccc2[n+]1C (some centres unmarked) | 1 to 5 µM |
| COC(=O)Cn1c(-c2ccc(N(C)C)cc2)nc2ccccc21 | > 5 µM |
| CC(C)[C@@H]1CC[C@@H](C)CC1OC(=O)Cn1c(-c2ccc(N=[N+]=[N-])cc2)nc2ccccc21 (some centres unmarked) | > 5 µM |
| C#CCN(CC(=O)Oc1ccc(-c2n(CC(=O)OC3C[C@H](C)CC[C@H]3C(C)C)c3ccccc3[n+]2C)cc1)Cc1ccc(C2(C(F)(F)F)N=N2)cc1 (some centres unmarked) | 1 to 5 µM |
| COC(=O)Cn1c(-c2cccc(F)c2)nc2ccccc21 | > 5 µM |
| CC(C)[C@@H]1CC[C@@H](C)CC1OC(=O)[C@@H](C)n1c(-c2ccc(N(C)C)cc2)[n+](C)c2ccccc21 (some centres unmarked) | < 0.1 µM |
| CCc1n(CC(=O)OC(C)(C)C)c2ccccc2[n+]1C | > 5 µM |
| CC(C)[C@@H]1CC[C@@H](C)CC1OC(=O)Cn1c(-c2ccc(Cl)cc2)[n+](C)c2ccccc21 (some centres unmarked) | 0.1 to 1 µM |
| CCc1n(CC(=O)OCc2ccccc2)c2ccccc2[n+]1C | > 5 µM |
| CCc1n(CC(=O)OC2C[C@H](C)CC[C@H]2C(C)C)c2ccc(C(F)(F)F)cc2[n+]1C (some centres unmarked) | 1 to 5 µM |
| CCc1n([C@H](Cc2ccc(O)cc2)C(=O)OC2C[C@H](C)CC[C@H]2C(C)C)c2ccccc2[n+]1C (some centres unmarked) | 1 to 5 µM |
| C/C=C/c1n(CC(=O)OC2C[C@H](C)CC[C@H]2C(C)C)c2ccccc2[n+]1C (some centres unmarked) | 1 to 5 µM |
| CCc1n(CC(=O)OC2C[C@H](C)CC[C@H]2C(C)C)c2ncccc2[n+]1C (some centres unmarked) | 0.1 to 1 µM |
| CC[n+]1c(-c2ccc(N(C)C)cc2)n(CC(=O)OC2C[C@H](C)CC[C@H]2C(C)C)c2ccccc21 (some centres unmarked) | < 0.1 µM |
| COC(=O)Cn1c(-c2ccco2)nc2ccccc21 | > 5 µM |
| Cc1cc(-c2n([C@@H](C(=O)OC3C[C@H](C)CC[C@H]3C(C)C)C3CC3)c3ccccc3[n+]2C)ccc1N(C)C (some centres unmarked) | < 0.1 µM |
| CC(C)[C@@H]1CC[C@@H](C)CC1OC(=O)Cn1c(-c2ccc(Cl)c(C(F)(F)F)c2)[n+](C)c2ccccc21 (some centres unmarked) | 0.1 to 1 µM |
| CCc1n(CC(=O)OC2C[C@H](C)CC[C@H]2C(C)C)c2cc(F)ccc2[n+]1C (some centres unmarked) | < 0.1 µM |
| CC(C)[C@@H]1CC[C@@H](C)CC1OC(=O)[C@@H](C)n1c(-c2ccc(C(F)(F)F)cc2)[n+](C)c2ccccc21 (some centres unmarked) | 0.1 to 1 µM |
